In patent US7825256B2, “Inducible nitric oxide synthase dimerization inhibitors” (Kalypsys, Inc., priority 2004, dated 2010):
pEC50: −log10 of the molar value.

Legend:
[1] = molecular target: T1, hiNOS (Homo sapiens, UniProt P35228); experiment: DAN assay, hiNOS expressed in transiently transfected HEK293 cells; assay type: cell-based; conditions: HEK293 cells transiently transfected with hiNOS
T1 construct: expressed in transfected cells; host or cells: HEK293
Outline: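 Human iNOS, nNOS or eNOS transiently expressed in HEK293 cells, with nNOS and eNOS needing added cofactors for activity. NO production is read as nitrite by fluorometry: 2,3-diaminonaphthalene forms fluorescent […], detecting 10 nM to 10 μM nitrite.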

[2] = molecular target: T2, hnNOS (Homo sapiens, UniProt P29475); experiment: DAN assay, hnNOS expressed in transiently transfected HEK293 cells; assay type: cell-based; conditions: HEK293 cells transiently transfected with hnNOS
T2 construct: expressed in transfected cells; host or cells: HEK293
T2 sequence (P29475 whole entry): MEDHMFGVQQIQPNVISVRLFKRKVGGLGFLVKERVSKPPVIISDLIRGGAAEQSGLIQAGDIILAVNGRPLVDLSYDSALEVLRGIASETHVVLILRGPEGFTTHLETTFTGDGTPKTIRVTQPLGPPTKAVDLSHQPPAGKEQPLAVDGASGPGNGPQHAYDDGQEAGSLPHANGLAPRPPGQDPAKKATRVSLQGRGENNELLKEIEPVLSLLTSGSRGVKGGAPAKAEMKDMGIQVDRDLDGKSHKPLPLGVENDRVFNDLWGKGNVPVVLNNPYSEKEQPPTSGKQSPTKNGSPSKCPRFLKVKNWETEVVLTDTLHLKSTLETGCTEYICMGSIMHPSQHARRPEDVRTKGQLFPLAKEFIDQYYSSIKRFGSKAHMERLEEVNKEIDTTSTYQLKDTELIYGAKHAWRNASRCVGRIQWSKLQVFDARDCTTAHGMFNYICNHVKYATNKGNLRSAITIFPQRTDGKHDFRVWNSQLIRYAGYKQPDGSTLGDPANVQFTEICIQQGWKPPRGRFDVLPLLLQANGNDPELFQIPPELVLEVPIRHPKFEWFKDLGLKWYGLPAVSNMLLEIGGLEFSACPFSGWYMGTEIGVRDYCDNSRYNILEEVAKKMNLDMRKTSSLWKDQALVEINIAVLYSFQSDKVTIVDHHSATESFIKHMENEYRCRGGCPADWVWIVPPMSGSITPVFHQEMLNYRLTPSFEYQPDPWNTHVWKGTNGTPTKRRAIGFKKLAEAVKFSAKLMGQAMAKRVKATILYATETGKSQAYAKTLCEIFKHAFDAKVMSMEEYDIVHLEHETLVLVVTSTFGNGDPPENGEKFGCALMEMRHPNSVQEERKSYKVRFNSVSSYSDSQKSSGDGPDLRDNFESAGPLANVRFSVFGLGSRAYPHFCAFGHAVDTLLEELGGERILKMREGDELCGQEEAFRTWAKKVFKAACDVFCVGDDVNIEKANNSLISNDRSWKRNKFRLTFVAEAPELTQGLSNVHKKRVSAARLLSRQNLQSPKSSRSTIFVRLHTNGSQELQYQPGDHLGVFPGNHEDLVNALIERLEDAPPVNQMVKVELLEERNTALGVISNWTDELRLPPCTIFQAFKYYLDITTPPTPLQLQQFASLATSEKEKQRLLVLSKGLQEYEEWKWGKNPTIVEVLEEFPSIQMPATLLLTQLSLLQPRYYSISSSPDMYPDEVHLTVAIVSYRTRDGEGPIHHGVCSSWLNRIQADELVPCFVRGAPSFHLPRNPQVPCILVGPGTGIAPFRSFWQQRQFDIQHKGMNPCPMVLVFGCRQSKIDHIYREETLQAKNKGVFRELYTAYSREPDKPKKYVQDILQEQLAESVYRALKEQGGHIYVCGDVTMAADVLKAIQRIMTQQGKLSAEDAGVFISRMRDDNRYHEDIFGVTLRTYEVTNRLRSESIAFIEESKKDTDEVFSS
Excerpt: The source of nitric oxide synthase (NOS) enzyme can be generated in several ways including induction of endogenous iNOS using cytokines and/or lipopolysaccharide (LPS) in various cell types known in the art. Alternatively, the gene encoding the enzyme can be cloned and the enzyme can be generated in cells via heterologous expression from a transient or stable expression plasmid with suitable features for protein expression as are known in the art. Enzymatic activity (nitric oxide production) is calcium independent for iNOS, while the constitutive NOS isoforms, nNOS and eNOS, become active with the addition of various cofactors added to cellular media or extract as are well known in the art. Enzymes specified in Table 1 were expressed in HEK293 cells transiently transfected with the indicated NOS isoform.
A major metabolic pathway for nitric oxide is to nitrate and nitrite, which are stable metabolites within tissue culture, tissue, plasma, and urine (S Moncada, A Higgs, N Eng J Med 329, 2002 (1993)).
The level of nitrate or nitrite in the specimen can be quantified by any method known in the art which provides adequate sensitivity and reproducibility. A variety of protocols have also been described for detecting and quantifying nitrite and nitrate levels in biological fluids by ion chromatography (e.g., S A Everett et al., J. Chromatogr. 706, 437 (1995); J M Monaghan et al., J. Chromatogr. 770, 143 (1997)), high-performance liquid chromatography (e.g., M Kelm et al., Cardiovasc. Res. 41, 765 (1999)), and capillary electrophoresis (M A Friedberg et al., J. Chromatogr. 781, 491 (1997)). […] Using 2,3-diaminonaphthalene (“DAN”), researchers have developed a rapid, quantitative fluorometric assay that can detect from 10 nM to 10 μM nitrite and is compatible with a multi-well microplate format. […]
A specimen can be processed prior to determination of nitrate or nitrite as required by the quantification method, or in order to improve the results, or for the convenience of the investigator. […]

[3] = system: rat; experiment: Capsaicin test (topical capsaicin allodynia); assay type: in vivo
Excerpt: Subcutaneous injection of dilute capsaicin into the rat hind paw produces transient but pronounced hyperalgesia, allodynia and pain. This effect may be mitigated by pretreatment with a suitable agent, such as a topical anaesthetic or analgesic, and the extent of this mitigation quantified by evaluation of pain-related behaviors in response to noxious or innocuous stimuli as described above; rats pretreated with a known analgesic display fewer pain and allodynia related behaviors than controls. Compounds may be evaluated for their efficacy as potential analgesics in this manner as well.
Male Lewis rats weighing between 180 and 250 grams are used. The right hind paw is dipped into vehicle (100% acetone) or compound in vehicle for 30 seconds and then allowed to air-dry for 30 sec. To prevent the animal from licking the compound off the paw, the paw is wiped twice with a wet paper towel. At 15 min after application of vehicle or compound, 0.1 mg in 10 μL capsaicin is injected into right hind paw. Measurement of allodynia is performed 0.5 to 1 hour after capsaicin injection.
One procedure for quantifying allodynia measures the rat behavioral response to presentation of von Frey filaments of increasing diameter. Each rat is placed in a small, clear cage on an elevated screen. Beginning with 4.31, the von Frey hair is presented perpendicularly to the right mid-plantar hind paw with sufficient force to cause slight buckling, for 6-8 seconds. If presentation lifts the hind paw it is disregarded, as it changes the nature of the stimulus. A positive response is noted if the paw is sharply withdrawn upon onset or offset of stimulus. Ambulation is considered an ambiguous response and the presentation is repeated. Stimuli are presented in a consecutive fashion. A positive response would call for the presentation of the immediately weaker weight filament next; likewise, no response would call for the immediately stronger. Presentations continue until a series of six consecutive responses from the first change is logged. The next rat is then tested. This procedure is standard in the art for the measurement of allodynia, but any other method known in the art which provides adequate sensitivity and reproducibility may be substituted.

[4] = at 0.5 hr after capsaicin injection
[5] = at 1 hr after capsaicin injection

SMILES	pEC50 [1]	pEC50 [2]	Topical Capsaicin Allodynia [3, 4]	Topical Capsaicin Allodynia [3, 5]
CN(CCCNCc1ccc2c(c1)OCO2)c1nc(-n2ccnc2)ns1 [Example 2, N′-Benzo[1,3]dioxol-5-ylmethyl-N-(3-imidazol-1-yl-[1,2,4]thiadiazol-5-yl)-N-methyl-propane-1,3-diamine]	> 6.00	< 6.00	+ at 0.5 hr ((+) = >15% inhibition)	+ at 1 hr ((+) = >15% inhibition)
Cc1cc(C2CCCN2C(=O)NCCc2ccc3c(c2)OCO3)nc(-n2ccnc2)n1 (stereo not drawn) [Example 4, 2-(2-Imidazol-1-yl-6-methyl-pyrimidin-4-yl)-pyrrolidine-1-carboxylic acid (2-benzo[1,3]dioxol-5-yl-ethyl)-amide]	> 6.00	6.15	− at 0.5 hr ((−) = <15% inhibition)	+ at 1 hr ((+) = >15% inhibition)
Cc1cc(C2CCCN2C(=O)CNCc2ccc3c(c2)OCO3)nc(-n2ccnc2)n1 (stereo not drawn) [Example 5]	> 6.00	< 6.00	+ at 0.5 hr ((+) = >15% inhibition)	− at 1 hr ((−) = <15% inhibition)
